Results: patent US20050069513A1, “Amphiphilic compounds for pharmaceutical or cosmetic use” (Physica S.A.R.L., priority 2001, published 2005)

Experiment: Formation of ion pair in aqueous phase: solubility / appearance of solutions
Assay type: physicochemical
Details: acylamino acid dispersed in aqueous phase, milky white appearance
Excerpt: Two aqueous solutions are used. The first contains calcitonin. Due to the fact that the calcitonin is hydrophilic, the solution is clear. […] This second solution has a milky white appearance.
The obtained complex, calcitonin oleyl methyl glycine, is therefore amphiphilic.
Two aqueous solutions are used. The first contains lidocaine dispersed in the aqueous solution. […] This second solution has a milky white appearance.
The obtained complex, lidocaine oleyl glycine, is therefore amphiphilic.
A solution of NaOH in the quantity required for causing precipitation of all of the polymyxin E by deplacement of the sulphate salt is added to a solution of polymyxin E sulphate. Polymyxin E, also known as colistin, thereby goes back to its non-salified, basic structure. The resulting solution, solution B, is thus an aqueous phase with a precipitate of polymyxin E.
The polymyxin is thus resolubilized in the form of an amphiphilic complex, polymyxin E linoleyl glycine.

Solubility in water, only slightly soluble in water:
CCCCC/C=C\C/C=C\CCCCCCCCNCC(=O)O [linoleyl glycine]
CCCCCCCC/C=C\CCCCCCCCN(C)CC(=O)O [oleyl methyl glycine]
CCCCCCCC/C=C\CCCCCCCCNCC(=O)O [oleyl glycine]
